The test system of the test is HEK293T cells carrying the ATF4 luciferase reporter. The test can be described thus: ATF4-Luc assay, in vitro model of Vanishing Cell White Matter Disease (VWMD). In kind it is cell-based. To be noted: Homo sapiens, HEK-293T, 1 μg/mL tunicamycin, 7 hours, One Glo luminescence. Put shortly:
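Compound at 200 nM and tunicamycin at 1 μg/mL were given together for 7 h to HEK293T cells stably transduced with an ATF4 5′-UTR-driven firefly luciferase reporter. Read-out by luminescence, reported as EC50.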
As for `Cn1nccc1C(=O)NC12CC(NC(=O)COc3ccc(Cl)c(F)c3)(C1)C2` [Compound 388, N-{3-[2-(4-chloro-3-fluorophenoxy)acetamido]bicyclo[1.1.1]pentan-1-yl}-1-methyl-1H-pyrazole-5-carboxamide], the EC50 (in general, the concentration giving half of the maximal effect) was 250 to 1000 nM.

Take `Cc1cnc2cccc(C(=O)NC34CC(NC(=O)COc5ccc(Cl)c(F)c5)(C3)C4)c2n1` [Compound 843, N-{3-[2-(4-chloro-3-fluorophenoxy)acetamido]bicyclo[1.1.1]pentan-1-yl}-3-methylquinoxaline-5-carboxamide]: the EC50 was greater than 2000 nM.

For `COc1cccc(C(=O)NC23CC(NC(=O)COc4ccc(Cl)c(F)c4)(C2)C3)c1` [Compound 301, N-{3-[2-(4-chloro-3-fluorophenoxy)acetamido]bicyclo[1.1.1]pentan-1-yl}-3-methoxybenzamide], the EC50 was 250 to 1000 nM.

As for `Cn1ccc(C(=O)NC23CC(NC(=O)COc4ccc(Cl)c(F)c4)(C2)C3)n1` [Compound 389, N-{3-[2-(4-chloro-3-fluorophenoxy)acetamido]bicyclo[1.1.1]pentan-1-yl}-1-methyl-1H-pyrazole-3-carboxamide], the EC50 lay in the range of 250 to 1000 nM.

Consider `O=C(COc1ccc(Cl)c(F)c1)NC12CCC(NC(=O)c3cc(Cl)no3)(CC1)CC2O` (centres unmarked) [Compound 414, 3-chloro-N-{4-[2-(4-chloro-3-fluorophenoxy)acetamido]-3-hydroxybicyclo[2.2.2]octan-1-yl}-1,2-oxazole-5-carboxamide], for which the EC50 fell in the range of 50 to 250 nM.

With `CCCc1cnc(C(=O)NC23CC(NC(=O)COc4ccc(Cl)c(F)c4)(C2)C3)cn1` [Compound 334, N-{3-[2-(4-chloro-3-fluorophenoxy)acetamido]bicyclo[1.1.1]pentan-1-yl}-5-propylpyrazine-2-carboxamide], the EC50 is less than 50 nM.

Consider `O=C(COc1ccc(Cl)c(F)c1)NC12CC(NC(=O)c3cc4n(n3)CCCN4)(C1)C2` [Compound 125, N-{3-[2-(4-chloro-3-fluorophenoxy)acetamido]bicyclo[1.1.1]pentan-1-yl}-4,5,6,7-tetrahydropyrazolo[1,5-a]pyrimidine-2-carboxamide], for which the EC50 is greater than 2000 nM.

As to `Cc1cc(C(=O)NC23CC(NC(=O)COc4ccc(Cl)c(F)c4)(C2)C3)c(C)o1` [Compound 537, N-{3-[2-(4-chloro-3-fluorophenoxy)acetamido]bicyclo[1.1.1]pentan-1-yl}-2,5-dimethylfuran-3-carboxamide], the EC50 is 250 to 1000 nM.

`Cc1cc(C(=O)NC23CCC(NC(=O)COc4ccc(Cl)c(F)c4)(C2)C3)on1` [Compound 324, N-{4-[2-(4-chloro-3-fluorophenoxy)acetamido]bicyclo[2.1.1]hexan-1-yl}-3-methyl-1,2-oxazole-5-carboxamide]: the EC50 lay within 250 to 1000 nM.

On to `O=C(COc1ccc(Cl)c(F)c1)NC12CC(NC(=O)c3ccc4[nH]c(=O)[nH]c4n3)(C1)C2` [Compound 205, N-{3-[2-(4-chloro-3-fluorophenoxy)acetamido]bicyclo[1.1.1]pentan-1-yl}-2-oxo-2,3-dihydro-1H-imidazo[4,5-b]pyridine-5-carboxamide], for which the EC50 is greater than 2000 nM.

For `CCn1nc(C(=O)NC23CC(NC(=O)COc4ccc(Cl)c(F)c4)(C2)C3)cc1C` [Compound 836, N-{3-[2-(4-chloro-3-fluorophenoxy)acetamido]bicyclo[1.1.1]pentan-1-yl}-1-ethyl-5-methyl-1H-pyrazole-3-carboxamide], the EC50 is greater than 2000 nM.

Regarding `O=C(COc1ccc(Cl)c(F)c1)NC12CCC(NC(=O)c3cc(Cc4ccc(Cl)cc4)no3)(CC1)CC2O` (centres unmarked) [Compound 410, N-{4-[2-(4-chloro-3-fluorophenoxy)acetamido]-3-hydroxybicyclo[2.2.2]octan-1-yl}-3-[(4-chlorophenyl)methyl]-1,2-oxazole-5-carboxamide], the EC50 was 50 to 250 nM.

With `Cc1ccc(C(=O)NC23CC(NC(=O)COc4ccc(Cl)c(F)c4)(C2)C3)cc1CO` [Compound 452, N-{3-[2-(4-chloro-3-fluorophenoxy)acetamido]bicyclo[1.1.1]pentan-1-yl}-3-(hydroxymethyl)-4-methylbenzamide], the EC50 lay in the range of 250 to 1000 nM.

As to `Cc1ncc(C(=O)NC23CCC(NC(=O)COc4ccc(Cl)c(F)c4)(CC2)C(O)C3)s1` (centres unmarked) [Compound 471, N-{4-[2-(4-chloro-3-fluorophenoxy)acetamido]-3-hydroxybicyclo[2.2.2]octan-1-yl}-2-methyl-1,3-thiazole-5-carboxamide], the EC50 was in the range of 50 to 250 nM.

Consider `NCc1ccnc(C(=O)NC23CC(NC(=O)COc4ccc(Cl)c(Cl)c4)(C2)C3)c1` [Compound 615, 4-(aminomethyl)-N-{3-[2-(3,4-dichlorophenoxy)acetamido]bicyclo[1.1.1]pentan-1-yl}pyridine-2-carboxamide], for which the EC50 lay within 50 to 250 nM.

As for `Cc1cnc2cc(C(=O)NC34CC(NC(=O)COc5ccc(Cl)c(F)c5)(C3)C4)nn2c1` [Compound 833, N-{3-[2-(4-chloro-3-fluorophenoxy)acetamido]bicyclo[1.1.1]pentan-1-yl}-6-methylpyrazolo[1,5-a]pyrimidine-2-carboxamide], the EC50 lay within 1000 to 2000 nM.

In the case of `O=C(COc1ccc(Cl)c(F)c1)NC12CC(NC(=O)c3csc(C(F)(F)F)n3)(C1)C2` [Compound 641, N-{3-[2-(4-chloro-3-fluorophenoxy)acetamido]bicyclo[1.1.1]pentan-1-yl}-2-(trifluoromethyl)-1,3-thiazole-4-carboxamide], the EC50 was less than 50 nM.

For `O=C(COc1ccc(Cl)c(F)c1)NC12CCC(NC(=O)c3cc(C(F)(F)F)ccn3)(CC1)CC2O` (centres unmarked) [Compound 933, N-{4-[2-(4-chloro-3-fluorophenoxy)acetamido]-3-hydroxybicyclo[2.2.2]octan-1-yl}-4-(trifluoromethyl)pyridine-2-carboxamide], the EC50 was in the range of 50 to 250 nM.

Take `O=C(COc1ccc(Cl)c(F)c1)NC12CC(NC(=O)c3cnc(O)[nH]3)(C1)C2` [Compound 812, N-{3-[2-(4-chloro-3-fluorophenoxy)acetamido]bicyclo[1.1.1]pentan-1-yl}-2-hydroxy-1H-imidazole-5-carboxamide]: the EC50 is 1000 to 2000 nM.

For `O=C(COc1ccc(Cl)c(Cl)c1)NC12CCC(NC(=O)c3cnc(-c4ccc(Cl)c(F)c4)o3)(C1)C2` [Compound 110, 2-(4-chloro-3-fluorophenyl)-N-{4-[2-(3,4-dichlorophenoxy)acetamido]bicyclo-[2.1.1]hexan-1-yl}-1,3-oxazole-5-carboxamide], the EC50 fell in the range of 50 to 250 nM.

As for `CCOc1ccsc1C(=O)NC12CC(NC(=O)COc3ccc(Cl)c(F)c3)(C1)C2` [Compound 551, N-{3-[2-(4-chloro-3-fluorophenoxy)acetamido]bicyclo[1.1.1]pentan-1-yl}-3-ethoxythiophene-2-carboxamide], the EC50 was in the range of 50 to 250 nM.

`Cc1cnc(C(=O)NC23CCC(NC(=O)COc4ccc(Cl)c(F)c4)(CC2)C[C@@H]3O)cn1` [Compound 733, N-{(2S)-4-[2-(4-chloro-3-fluorophenoxy)acetamido]-2-hydroxybicyclo[2.2.2]octan-1-yl}-5-methylpyrazine-2-carboxamide]: the EC50 was greater than 2000 nM.

On to `O=C(COc1ccc(Cl)c(F)c1)NC12CCC(NC(=O)c3cn[nH]c3)(CC1)C(O)C2` (centres unmarked) [Compound 214, N-{4-[2-(4-chloro-3-fluorophenoxy)acetamido]-2-hydroxybicyclo[2.2.2]octan-1-yl}-1H-pyrazole-4-carboxamide], for which the EC50 was greater than 2000 nM.

(Values after US10913727B2, “Modulators of the integrated stress pathway” (Calico Life Sciences LLC, priority 2016, dated 2021).)
